Like-named read-outs stand apart in the source and are kept apart here.
Legend:
[1] = tested on: NCI-H358 cells (express KRas G12C), Phospho-ERK; assay: Cellular inhibition of KRas G12C: Phospho-ERK in NCI-H358 cells; format: cell-based; settings: Homo sapiens, pERK(Thr202/Tyr204) normalized with GAPDH, NCI-H358 cells, 3 hours, read-out: IC50
Method in brief: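 IC50 derived by 4-parameter fit of GAPDH-normalized pERK(Thr202/Tyr204) signal, as percent of DMSO control. Signal came from in-cell immunodetection with infrared secondaries after 3 h compound exposure of KRas G12C NCI-H358 cells at 0.5% DMSO.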

KRas G12C = KRas G12C (Homo sapiens, UniProt P01116, C118S/C51S/C80L/G12C); assay: KRas G12C Modification Assay (LCMS detection of covalent adduct); format: binding; settings: normalized percent of control; tested at 5 μM concentration for 3 hours
Method in brief: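 Cys-light KRas G12C mutant protein incubated with compound in K-Ras assay buffer, reactions quenched at set time points with 25 mM acetic acid and analysed by intact-protein LC/MS on a C-3 column. Deconvoluted mass heights expressed as percent of control (POC) relative to compound-free protein.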

Structure (SMILES) | IC50 ([1]; NCI-H358, 3 h) [nM] | POC (KRas G12C) | IC50 [1] [nM]
C=CC(=O)N1CCN(c2nc(OCCN3CCC(F)(F)CC3)nc3c2CCN(c2cccc4cccc(Cl)c24)C3)C[C@@H]1CC#N [Example 452, 2-[(2S)-4-[7-(8-chloro-1-naphthyl)-2-[2-(4,4-difluoro-1-piperidyl)ethoxy]-6,8-dihydro-5H-pyrido[3,4-d]pyrimidin-4-yl]-1-prop-2-enoyl-piperazin-2-yl]acetonitrile] | 0.1 to 1000 | C (“C”>50% POC) | –
C=CC(=O)N1CCN(c2nc(OC[C@@H]3CCCN3C)nc3c2CCN(c2c(F)cccc2C(F)(F)F)C3)CC1CC#N (stereo partly drawn) [Example 275, 2-(1-acryloyl-4-(7-(2-fluoro-6-(trifluoromethyl)phenyl)-2-(((S)-1-methylpyrrolidin-2-yl)methoxy)-5,6,7,8-tetrahydropyrido[3,4-d]pyrimidin-4-yl)piperazin-2-yl)acetonitrile] | 0.1 to 1000 | C (“C”>50% POC) | –
C=CC(=O)N1CCN(c2nc(OC[C@@H]3CCCN3C)nc3c2CCN(c2cccc4ccccc24)C3)C[C@H]1C [Example 201, 1-((R)-2-methyl-4-(2-(((S)-1-methylpyrrolidin-2-yl)methoxy)-7-(naphthalen-1-yl)-5,6,7,8-tetrahydropyrido[3,4-d]pyrimidin-4-yl)piperazin-1-yl)prop-2-en-1-one] | > 1000 | B (“B”>25% POC−≤50% POC) | –
Cc1cccc2cccc(N3CCc4c(nc(OCCC(=O)N(C)C)nc4N4CCN(C(=O)/C=C/CN(C)C)[C@@H](CC#N)C4)C3)c12 [Example 460, (S,E)-3-((4-(3-(cyanomethyl)-4-(4-(dimethylamino)but-2-enoyl)piperazin-1-yl)-7-(8-methylnaphthalen-1-yl)-5,6,7,8-tetrahydropyrido[3,4-d]pyrimidin-2-yl)oxy)-N,N-dimethylpropanamide] | – | C (“C”>50% POC) | 0.1 to 1000
C=CC(=O)N1CCN(c2nc(OC[C@@H]3CCNC3)nc3c2CCN(c2cc(O)cc4ccccc24)C3)CC1 [Example 146, 1-[4-[7-(3-hydroxy-1-naphthyl)-2-[[(3R)-pyrrolidin-3-yl]methoxy]-6,8-dihydro-5H-pyrido[3,4-d]pyrimidin-4-yl]piperazin-1-yl]prop-2-en-1-one] | > 1000 | B (“B”>25% POC−≤50% POC) | –
C=CC(=O)N1CCN(c2nc(OC[C@@H]3CCCN3C)nc3c2CCN(c2cccc4cccc(C(F)(F)F)c24)C3)C[C@@H]1CC#N [Example 433, 2-((S)-1-acryloyl-4-(2-(((S)-1-methylpyrrolidin-2-yl)methoxy)-7-(8-(trifluoromethyl)naphthalen-1-yl)-5,6,7,8-tetrahydropyrido[3,4-d]pyrimidin-4-yl)piperazin-2-yl)acetonitrile] | 0.1 to 1000 | C (“C”>50% POC) | –
C=CC(=O)N1CCN(c2nc(OC[C@@H]3C[C@@H](O)CN3C)nc3c2CCN(c2cccc4ccccc24)C3)CC1CC#N (stereo partly drawn) [Example 218, 2-(1-acryloyl-4-(2-(((2S,4R)-4-hydroxy-1-methylpyrrolidin-2-yl)methoxy)-7-(naphthalen-1-yl)-5,6,7,8-tetrahydropyrido[3,4-d]pyrimidin-4-yl)piperazin-2-yl)acetonitrile] | 0.1 to 1000 | C (“C”>50% POC) | –
C=CC(=O)N1CCN(c2nc(OC[C@H]3CCC(C)(C)N3)nc3c2CCN(c2cc(O)cc4ccccc24)C3)CC1 [Example 174, (R)-1-(4-(2-((5,5-dimethylpyrrolidin-2-yl)methoxy)-7-(3-hydroxynaphthalen-1-yl)-5,6,7,8-tetrahydropyrido[3,4-d]pyrimidin-4-yl)piperazin-1-yl)prop-2-en-1-one] | > 1000 | C (“C”>50% POC) | –
C=CC(=O)N1CCN(c2ncnc3c2CC(C)N(c2cc(O)cc4ccccc24)C3)CC1 (centres unmarked) [Example 6, 1-(4-(7-(3-hydroxynaphthalen-1-yl)-6-methyl-5,6,7,8-tetrahydropyrido[3,4-d]pyrimidin-4-yl)piperazin-1-yl)prop-2-en-1-one] | – | B (“B”>25% POC−≤50% POC) | > 1000
C=CC(=O)N1CCN(c2nc(OCCCN3CCCOCC3)nc3c2CCN(c2cc(O)cc4ccccc24)C3)CC1 [Example 101, 1-(4-(2-(3-(1,4-oxazepan-4-yl)propoxy)-7-(3-hydroxynaphthalen-1-yl)-5,6,7,8-tetrahydropyrido[3,4-d]pyrimidin-4-yl)piperazin-1-yl)prop-2-en-1-one] | 0.1 to 1000 | C (“C”>50% POC) | –
C=CC(=O)N1CCN(c2nc(OCCCN3CCOCC3)nc3c2CCN(c2c(C)ccc4[nH]ccc24)C3)CC1 [Example 209, 1-(4-(7-(5-methyl-1H-indol-4-yl)-2-(3-morpholinopropoxy)-5,6,7,8-tetrahydropyrido[3,4-d]pyrimidin-4-yl)piperazin-1-yl)prop-2-en-1-one] | – | C (“C”>50% POC) | > 1000
C=CC(=O)N1CCN(c2nc(OC[C@H]3CN(C)C(C)(C)CO3)nc3c2CCN(c2cccc4ccccc24)C3)C[C@@H]1CC#N [Example 450, 2-((S)-1-Acryloyl-4-(7-(naphthalen-1-yl)-2-(((R)-4,5,5-trimethylmorpholin-2-yl)methoxy)-5,6,7,8-tetrahydropyrido[3,4-d]pyrimidin-4-yl)piperazin-2-yl)acetonitrile] | 0.1 to 1000 | C (“C”>50% POC) | –
C=CC(=O)N1CCN(c2nc(OC[C@@H]3CCCN3C)nc3c2CCN(c2cncc(Cl)c2C)C3)C[C@@H]1CC#N [Example 387, 2-((S)-1-acryloyl-4-(7-(5-chloro-4-methylpyridin-3-yl)-2-(((S)-1-methylpyrrolidin-2-yl)methoxy)-5,6,7,8-tetrahydropyrido[3,4-d]pyrimidin-4-yl)piperazin-2-yl)acetonitrile] | 0.1 to 1000 | C (“C”>50% POC) | –
C=CC(=O)N1CCN(c2nc(OC[C@@H]3CCCN3C)nc3c2CCN(c2cccc(C)c2C)C3)CC1CC#N (stereo partly drawn) [Example 228, 2-(1-acryloyl-4-(7-(2,3-dimethylphenyl)-2-(((S)-1-methylpyrrolidin-2-yl)methoxy)-5,6,7,8-tetrahydropyrido[3,4-d]pyrimidin-4-yl)piperazin-2-yl)acetonitrile] | 0.1 to 1000 | C (“C”>50% POC) | –
C=CC(=O)N1CCN(c2nc(OCCN3CCC[C@@H](F)C3)nc3c2CCN(c2cc(O)cc4ccccc24)C3)CC1 [Example 207, (R)-1-(4-(2-(2-(3-fluoropiperidin-1-yl)ethoxy)-7-(3-hydroxynaphthalen-1-yl)-5,6,7,8-tetrahydropyrido[3,4-d]pyrimidin-4-yl)piperazin-1-yl)prop-2-en-1-one] | – | C (“C”>50% POC) | > 1000
C=CC(=O)N1CCN(c2nc(OCCCN3CCOCC3)nc3c2CCN(c2cc(O)cc4cc(C)ccc24)C3)CC1 [Example 43, 1-(4-(7-(3-hydroxy-6-methylnaphthalen-1-yl)-2-(3-morpholinopropoxy)-5,6,7,8-tetrahydropyrido[3,4-d]pyrimidin-4-yl)piperazin-1-yl)prop-2-en-1-one] | – | C (“C”>50% POC) | > 1000
C=CC(=O)N1CCN(c2nc(OCCN3CCN(C(C)=O)CC3)nc3c2CCN(c2cc(O)cc4ccccc24)C3)CC1 [Example 37, 1-(4-(2-(2-(4-acetylpiperazin-1-yl)ethoxy)-7-(3-hydroxynaphthalen-1-yl)-5,6,7,8-tetrahydropyrido[3,4-d]pyrimidin-4-yl)piperazin-1-yl)prop-2-en-1-one] | > 1000 | C (“C”>50% POC) | –
C=CC(=O)N1CCN(c2nc(OC[C@@H]3CCCN3C)nc3c2CCN(c2c(F)c(O)cc4ccccc24)C3)CC1 [Example 249, 1-[4-[7-(2-fluoro-3-hydroxy-1-naphthyl)-2-[[(2S)-1-methylpyrrolidin-2-yl]methoxy]-6,8-dihydro-5H-pyrido[3,4-d]pyrimidin-4-yl]piperazin-1-yl]prop-2-en-1-one] | – | C (“C”>50% POC) | 0.1 to 1000
C=CC(=O)N1CCN(c2nc(OC[C@@H]3CCCN3C)nc3c2CCN(c2cccc4ccccc24)C3)C[C@@H]1CCOC [Example 432, 1-((S)-2-(2-methoxyethyl)-4-(2-(((S)-1-methylpyrrolidin-2-yl)methoxy)-7-(naphthalen-1-yl)-5,6,7,8-tetrahydropyrido[3,4-d]pyrimidin-4-yl)piperazin-1-yl)prop-2-en-1-one] | > 1000 | C (“C”>50% POC) | –
C=CC(=O)N1CCN(c2nc(OC[C@@H]3CCCN3C)nc3c2CCN(c2cccc4ccccc24)C3)C[C@@H]1CC#N [Example 234, 2-((S)-1-acryloyl-4-(2-(((S)-1-methylpyrrolidin-2-yl)methoxy)-7-(naphthalen-1-yl)-5,6,7,8-tetrahydropyrido[3,4-d]pyrimidin-4-yl)piperazin-2-yl)acetonitrile] | – | C (“C”>50% POC) | 0.1 to 1000
C=CC(=O)N1CCN(c2nc(N3CCN(C)CC3)nc3c2CCN(c2cc(O)cc4ccccc24)C3)CC1 [Example 12, 1-(4-(7-(3-hydroxynaphthalen-1-yl)-2-(4-methylpiperazin-1-yl)-5,6,7,8-tetrahydropyrido[3,4-d]pyrimidin-4-yl)piperazin-1-yl)prop-2-en-1-one] | > 1000 | C (“C”>50% POC) | –
C=CC(=O)N1CCN(c2ncnc3c2CCN(c2cccc4ccccc24)C3)CC1 [Example 3, 1-(4-(7-(naphthalen-1-yl)-5,6,7,8-tetrahydropyrido[3,4-d]pyrimidin-4-yl)piperazin-1-yl)prop-2-en-1-one] | > 1000 | A (“A”≤25% POC) | –
